Reference: publication PMC8682738, “Constrained peptides mimic a viral suppressor of RNA silencing” (Nucleic Acids Research, 2021)
Several values for one entry are separate records, joined by “and”; a condition that tells them apart may be missing. Equal entries are not always repeated. Positions of bridges follow the written chain, without caps; N, C: chain ends. Non-standard residues stand in square brackets, D forms with d. Residues, ends and D or L forms follow the SMILES beside them. *: point of attachment. FITC = O=C1OC2(c3ccc(O)cc3Oc3cc(O)ccc32)c2ccc(NC(=S)*)cc21; R8 = C=CCCCCCC[C@@](C)(N)C(=O)O; S5 = C=CCCC[C@](C)(N)C(=O)O; AEEA = NCCOCCOCC(=O)O

Tests used:
proteinase K = proteinase K (Parengyodontium album, UniProt P06873); experiment: Protease stability assay; type: in vitro ADME; conditions: proteinase K 10 μg·ml^−1, fluorescein-labeled peptide 50 μM, 10 mM Tris pH 8.0, 150 mM NaCl, room temperature, HPLC absorbance 210 nm, exponential decay fit
Method: Protease stability assays were performed in analogy to a previously published protocol ([47]). Stocks of fluorescein-labeled peptides were prepared to a concentration of 55.5 μM in assay buffer (10 mM Tris, pH 8.0, 150 mM NaCl) and separately stocks of proteinase K also in assay buffer (c = 100 μg·ml^−1). To begin each experiment, peptide and proteinase K stocks were mixed (final concentrations: c = 10 μg·ml^−1 proteinase K, c = 50 μM fluorescein-labeled peptide; final volume = 500 μl) and incubated at room temperature. At each time point, 50 μl of the reaction mixture was quenched by adding 100 μl of TFA/ACN/H2O (v/v/v, 1:49:49) and subsequently incubated for 2 min on ice. Following centrifugation (15 min, 13200 rpm, 4°C), samples (45 μl) were monitored by analytical HPLC using a linear gradient of 10–60% HPLC solvent B over 20 min. The amount of remaining peptide was quantified via absorbance at λ = 210 nm (intact peptide (%)) and plotted against time (t) (h). Half-life (t1/2) was calculated by fitting the data to an exponential decay using the software Prism 5.0 (GraphPad).

[1] = CD spectroscopy, secondary structure content; type: physicochemical; conditions: fluorescein-labeled peptide 75 μM, 10 mM sodium phosphate pH 7.4, CDNN/PEPFIT; for Helix (α-helicity): unbound
Method: Spectra of fluorescein-labeled peptides were recorded with a J-715 circular dichroism spectrometer (Jasco) using a stoppered quartz cuvette (1 mm; Hellma). Peptide samples (c = 75 μM) were prepared in buffer: 10 mM disodium hydrogen phosphate, pH 7.4. For each sample, 10 CD spectra were measured between λ = 190 and 260 nm with continuous scan mode (10 mdeg sensitivity, 1.0 nm resolution, 1.0 nm bandwidth, 2 s integration time, 50 nm/min scan rate). Obtained spectra were averaged, then subtracted from a reference buffer spectrum and smoothed using a fast Fourier transform filter (FFT filter). The mean residue ellipticity (Θ) (deg·cm^2·dmol^−1·10^4) was calculated using Formula (2) and plotted against wavelength (λ) (nm). The ratio of secondary structure elements was calculated with CDNN using the PEPFIT set of reference spectra for secondary structure determination ([45],[46]):(2) where [Θ]m = mean molar ellipticity per peptide bond (degree·cm^2·dmol^−1·10^4), Θ = measured ellipticity (degree), d = optical path length (cm), cg = mass concentration (g·l^−1), MRW = mean residue weight, M = molar mass of the peptide (g·mol^−1) and N = number of peptide bonds.

pal-RNA duplex = experiment: ITC of N-terminally acetylated peptides with pal-RNA duplex; type: binding
Method: Isothermal titration calorimetry (ITC) was conducted using a MicroCal VP-ITC (Malvern Panalytical). Before measurement, oligonucleotide and peptide samples were dissolved in PBS and degassed using a ThermoVac (Malvern Panalytical) and heated to 30°C. N-terminally acetylated peptides (c = 3–12 μM) were then transferred into the sample cell and oligonucleotides (c = 12–72 μM) were transferred into the syringe. 35 Injections per measurement were performed at 30°C (8 μl injection volume, 2 s injection time, 180 s spacing, high feedback mode) with an initial delay of 60 s and a stirring speed of 307 rpm. Measurements were performed in triplicate. Using the MicroCal LLC ITC software (Origin; OriginLab Corporation), the heat associated with each injection was calculated by integrating the area under the curve in microcalories per second [μca/s] versus time [min] for each injection and then normalized to concentration. A ‘single set of identical binding sites’ model was used to fit the binding curves from which thermodynamic binding parameters (ΔG, ΔH, ΔS, N and Kd) were obtained.

ds pal-RNA = experiment: EMSA with ds pal-RNA; type: binding; conditions: fluorescein-labeled peptide 6 μM, RNA 3 μM, 10% native PAGE, 4°C
Method: Electrophoretic mobility shift assays (EMSAs) were performed using a Bio-Rad Mini-Protean gel system paired with a direct current (DC) power source (PowerPac™ HC, Bio-Rad). Typically, 6 μl solutions containing ds RNA (c = 3 μM) and fluorescein-labeled peptide (c = 6 μM) were incubated in binding buffer (10 mM Tris (pH 8.0), 0.5 mM EDTA, 12.5% glycerol and 150 mM KCl) at 4°C for 1 h. After incubation, bound RNA was resolved from peptide-free RNA using 10% non-denaturing polyacrylamide gels at 120 V in running buffer (25 mM Tris (pH 8.0), 200 mM glycine, 20 mM NaCl) at 4°C for 1 h. Visualization of fluorescent gel-bound species was conducted using a Typhoon Trio + fluorescence scanner (GE Healthcare Life Sciences). For nucleic acid visualization, gels were stained using 2 μl of SYBR™ gold nucleic acid gel dye (Molecular Probes) in 20 ml of TAE buffer (40 mM Tris, 1 mM EDTA, 20 mM acetic acid) for 45 min at RT before being visualized using a FluorChem™ gel documentation system (Alpha Innotech). To assess B3 binding to different ds RNA sequences (Supplementary Figure S20), 6 μl solutions containing hairpin RNA (c = 1 μM) and fluorescein-labeled B3 (c = 2 μM) were incubated in binding buffer (TAE and 10% glycerol) at RT for 1 h, and then resolved using 15% non-denaturing polyacrylamide gels (acrylamide/bis-acrylamide (19:1) in TAE) at 150 V in running buffer (TAE) at 4°C for 1.5 h. Visualization of fluorescent gel-bound species was conducted using a Bio-Rad ChemiDoc (Bio-Rad). Subsequently, gels were stained with SYBR™ gold nucleic acid gel dye (Invitrogen) as described above and visualized using the same imaging system. To assess B3 binding to pre–miR-21 (Supplementary Figure S24), the RNA was prepared at a fixed concentration (c = 1 μM) and incubated with varying concentrations of fluorescein-labeled B3 (c = 0–5 μM) in binding buffer (TAE and 10% glycerol) at RT for 1 h. After incubation, bound nucleic acid complexes were resolved using 15% non-denaturing polyacrylamide gels (acrylamide/bis-acrylamide (19:1) in TAE) at 150 V in running buffer (TAE) at 4°C for 1.5 h, followed by visualization and staining with SYBR™ gold nucleic acid gel dye (Invitrogen).

proteinase K, sequence (P06873 106-384): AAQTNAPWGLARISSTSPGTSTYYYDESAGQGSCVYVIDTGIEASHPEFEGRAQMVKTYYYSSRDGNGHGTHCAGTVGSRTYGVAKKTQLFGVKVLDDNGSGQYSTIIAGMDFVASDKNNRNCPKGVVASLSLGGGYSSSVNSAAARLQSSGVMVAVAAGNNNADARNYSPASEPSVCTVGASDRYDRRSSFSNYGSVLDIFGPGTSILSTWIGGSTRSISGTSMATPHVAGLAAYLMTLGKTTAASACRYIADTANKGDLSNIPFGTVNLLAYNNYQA

SMILES: CC(C)C[C@H](NC(=O)[C@H](CCC(=O)O)NC(=O)[C@H](CO)NC(=O)[C@H](CCCNC(=N)N)NC(=O)[C@H](CCCNC(=N)N)NC(=O)[C@H](CCC(N)=O)NC(=O)[C@H](CCC(=O)O)NC(=O)[C@H](CO)NC(=O)[C@@H]1CCCN1C(=O)[C@H](CO)NC(=O)[C@H](CCCCN)NC(=O)[C@H](Cc1c[nH]cn1)NC(=O)CNC(=O)[C@H](CCCNC(=N)N)NC(=O)[C@H](CCC(=O)O)NC(=O)[C@H](CCCCN)NC(=O)[C@H](CCCNC(=N)N)NC(=O)[C@H](CC(N)=O)NC(=O)[C@]1(C)CCCC=CCCCCCC[C@@](C)(NC(=O)[C@H](CCC(N)=O)NC(=O)[C@H](CCCCN)NC(=O)[C@H](CCCCN)NC(=O)COCCOCCNC(=S)Nc2ccc3c(c2)C(=O)OC32c3ccc(O)cc3Oc3cc(O)ccc32)C(=O)N[C@@H](CCC(N)=O)C(=O)N[C@@H](CCCNC(=N)N)C(=O)N[C@@H](CCCCN)C(=O)N[C@@H](CCCNC(=N)N)C(=O)N[C@@H](Cc2c[nH]cn2)C(=O)N[C@@H](CCCCN)C(=O)N1)C(=O)N[C@@H](Cc1c[nH]c2ccccc12)C(=O)N[C@@H](Cc1c[nH]cn1)C(=O)N[C@@H](C)C(=O)N[C@@H](CCCNC(=N)N)C(N)=O [A1] ({FITC-AEEA}-KKQ[R8]QRKRHK[S5]NRKERGHKSPSEQRRSELWHAR-NH2; staple 4-11)
- half-life t1/2: 3 min
- Half-life (t1/2) (proteinase K): 2.4 min
- Random coil [1]: 51.4%
- β-Sheet [1]: 2.9%
- β-Turn [1]: 9.6%
- Helix (α-helicity) [1]: 39.1%

SMILES: CC(C)C[C@H](NC(=O)[C@H](CCC(=O)O)NC(=O)[C@H](CO)NC(=O)[C@H](CCCNC(=N)N)NC(=O)[C@H](CCCNC(=N)N)NC(=O)[C@H](CCC(N)=O)NC(=O)[C@H](CCC(=O)O)NC(=O)[C@H](CO)NC(=O)[C@@H]1CCCN1C(=O)[C@H](CO)NC(=O)[C@H](CCCCN)NC(=O)[C@H](Cc1c[nH]cn1)NC(=O)CNC(=O)[C@H](CCCNC(=N)N)NC(=O)[C@H](CCC(=O)O)NC(=O)[C@H](CCCCN)NC(=O)[C@H](CCCNC(=N)N)NC(=O)[C@H](CC(N)=O)NC(=O)[C@]1(C)CCCC=CCCC[C@](C)(NC(=O)[C@H](CCCNC(=N)N)NC(=O)[C@H](CCC(N)=O)NC(=O)[C@H](C)NC(=O)[C@H](CCC(N)=O)NC(=O)[C@H](CCCCN)NC(=O)[C@H](CCCCN)NC(=O)COCCOCCNC(=S)Nc2ccc3c(c2)C(=O)OC32c3ccc(O)cc3Oc3cc(O)ccc32)C(=O)N[C@@H](CCCNC(=N)N)C(=O)N[C@@H](Cc2c[nH]cn2)C(=O)N[C@@H](CCCCN)C(=O)N1)C(=O)N[C@@H](Cc1c[nH]c2ccccc12)C(=O)N[C@@H](Cc1c[nH]cn1)C(=O)N[C@@H](C)C(=O)N[C@@H](CCCNC(=N)N)C(N)=O [A2] ({FITC-AEEA}-KKQAQR[S5]RHK[S5]NRKERGHKSPSEQRRSELWHAR-NH2; staple 7-11)
- half-life t1/2: 3 min
- Half-life (t1/2) (proteinase K): 2.3 min
- Random coil [1]: 51.3%
- β-Sheet [1]: 21.6%
- β-Turn [1]: 7.9%
- Helix (α-helicity) [1]: 21.9%

SMILES: CC(C)C[C@H](NC(=O)[C@H](CCC(=O)O)NC(=O)[C@H](CO)NC(=O)[C@H](CCCNC(=N)N)NC(=O)[C@H](CCCNC(=N)N)NC(=O)[C@H](CCC(N)=O)NC(=O)[C@H](CCC(=O)O)NC(=O)[C@H](CO)NC(=O)[C@@H]1CCCN1C(=O)[C@H](CO)NC(=O)[C@H](CCCCN)NC(=O)[C@H](Cc1c[nH]cn1)NC(=O)CNC(=O)[C@H](CCCNC(=N)N)NC(=O)[C@]1(C)CCCC=CCCC[C@](C)(NC(=O)[C@H](CCCCN)NC(=O)[C@H](Cc2c[nH]cn2)NC(=O)[C@H](CCCNC(=N)N)NC(=O)[C@H](CCCCN)NC(=O)[C@H](CCCNC(=N)N)NC(=O)[C@H](CCC(N)=O)NC(=O)[C@H](C)NC(=O)[C@H](CCC(N)=O)NC(=O)[C@H](CCCCN)NC(=O)[C@H](CCCCN)NC(=O)COCCOCCNC(=S)Nc2ccc3c(c2)C(=O)OC32c3ccc(O)cc3Oc3cc(O)ccc32)C(=O)N[C@@H](CC(N)=O)C(=O)N[C@@H](CCCNC(=N)N)C(=O)N[C@@H](CCCCN)C(=O)N1)C(=O)N[C@@H](Cc1c[nH]c2ccccc12)C(=O)N[C@@H](Cc1c[nH]cn1)C(=O)N[C@@H](C)C(=O)N[C@@H](CCCNC(=N)N)C(N)=O [A3] ({FITC-AEEA}-KKQAQRKRHK[S5]NRK[S5]RGHKSPSEQRRSELWHAR-NH2; staple 11-15)
- half-life t1/2: 3 min
- Half-life (t1/2) (proteinase K): 3.5 min
- Random coil [1]: 52.8%
- β-Sheet [1]: 10.6%
- β-Turn [1]: 10.1%
- Helix (α-helicity) [1]: 24.0%

SMILES: CC(C)C[C@H](NC(=O)[C@]1(C)CCCC=CCCC[C@](C)(NC(=O)[C@H](CCC(=O)O)NC(=O)[C@H](CO)NC(=O)[C@@H]2CCCN2C(=O)[C@H](CO)NC(=O)[C@H](CCCCN)NC(=O)[C@H](Cc2c[nH]cn2)NC(=O)CNC(=O)[C@H](CCCNC(=N)N)NC(=O)[C@H](CCC(=O)O)NC(=O)[C@H](CCCCN)NC(=O)[C@H](CCCNC(=N)N)NC(=O)[C@H](CC(N)=O)NC(=O)[C@]2(C)CCCC=CCCCCCC[C@@](C)(NC(=O)[C@H](CCC(N)=O)NC(=O)[C@H](CCCCN)NC(=O)[C@H](CCCCN)NC(=O)COCCOCCNC(=S)Nc3ccc4c(c3)C(=O)OC43c4ccc(O)cc4Oc4cc(O)ccc43)C(=O)N[C@@H](CCC(N)=O)C(=O)N[C@@H](CCCNC(=N)N)C(=O)N[C@@H](CCCCN)C(=O)N[C@@H](CCCNC(=N)N)C(=O)N[C@@H](Cc3c[nH]cn3)C(=O)N[C@@H](CCCCN)C(=O)N2)C(=O)N[C@@H](CCCNC(=N)N)C(=O)N[C@@H](CCCNC(=N)N)C(=O)N[C@@H](CO)C(=O)N1)C(=O)N[C@@H](Cc1c[nH]c2ccccc12)C(=O)N[C@@H](Cc1c[nH]cn1)C(=O)N[C@@H](C)C(=O)N[C@@H](CCCNC(=N)N)C(N)=O [B1] ({FITC-AEEA}-KKQ[R8]QRKRHK[S5]NRKERGHKSPSE[S5]RRS[S5]LWHAR-NH2; staple 4-11, 24-28)
- Kd (pal-RNA duplex; N-terminally acetylated peptide, PBS pH 7.4, 30°C, single set of identical binding sites model, triplicate, errors 1σ): 260 nM
- fold increased affinity compared to linear peptide wt33 (pal-RNA duplex; unlabeled analogs, pal-RNA): 5 fold
- Half-life (t1/2) (proteinase K): 829 min
- Random coil [1]: 13.8%
- β-Sheet [1]: 19.0%
- β-Turn [1]: 13.1%
- Helix (α-helicity) [1]: 81.8% and 82–85%
- binding to ds pal-RNA in EMSA (ds pal-RNA): full disappearance of the ds pal-RNA band
